This note sets out measurements from US8188059B2, “Compounds and methods for modulating expression of GCGR” (Isis Pharmaceuticals, Inc., priority 2006, dated 2012).

Strand notation (5' to 3'): a small letter for the sugar, then the base; units joined by * are phosphorothioate-linked, units joined directly phosphodiester-linked; [ ] holds rarer units or linkages, { } end groups; capitals alone tell only the bases. e = 2'-O-(2-methoxyethyl) (MOE); k = constrained ethyl (cEt); [5mC] = 5-methylcytosine; d = 2'-deoxy (DNA)

The subject of series [1] is ApoB mRNA. Put plainly: ApoB mRNA in liver of Balb/c mice, BNA short antisense compounds, i.p. twice per week for three weeks (Example 26, Table 89). The format is in vivo, mouse. The settings on record: relative to saline. On the procedure: The short antisense compounds shown in Table 88 were tested for their effects in vivo. […] A 5-10-5 MOE gapmer was used for a control treatment. Mice were sacrificed approximately 48 hours following the final dose. Liver tissue was collected for RNA isolation, and blood was collected for serum chemistry analyses. ApoB mRNA levels were measured by real-time PCR as described herein. ApoB mRNA levels were normalized to RNA levels as determined by RIBOGREEN, and are presented in Table 89 as percent inhibition relative to ApoB mRNA levels in saline-treated control animals.

The test system of series [2] is ApoB mRNA. Put plainly: ApoB mRNA in liver of Balb/c mice, single i.p. dose 8, 4, 2 or 1 μmol/kg, with ED50 (Example 28, Table 92). It is filed as in vivo, mouse. To be noted: Balb/c mice, relative to saline. On the procedure:
The short antisense compounds tested were ISIS 387462 and ISIS 398296. Each dose group consisted of four animals. A 5-10-5 MOE gapmer was used for a control treatment. Mice were sacrificed approximately 48 hours following the final dose. Liver tissue was collected for RNA isolation, and blood was collected for serum chemistry analyses. ApoB mRNA levels were measured by real-time PCR as described herein. ApoB mRNA levels were normalized to RNA levels as determined by RIBOGREEN, and are presented in Table 92 as percent inhibition relative to ApoB mRNA levels in saline-treated control animals.
At the 8 umol/kg dose, ApoB inhibition by the short antisense compounds was greater than observed with a 5-10-5 MOE gapmer at an equivalent dose. […] Triglycerides were reduced at the highest dose.

The subject of series [3] is PTP1B mRNA. Briefly: Dose response for human PTP1B in HuVEC cells, Primer Probe Set 3000 (Example 25, Table 87). It is filed as cell-based. How it is done: (§1) Human vascular endothelial (HuVEC) cells were plated at a density of 5000 cells per well and treated as described herein with nM concentrations of short antisense compound as indicated in Table 86. After the treatment period, RNA was isolated from the cells and PTP1B mRNA levels were measured by quantitative real-time PCR, as described herein. PTP1B mRNA levels were adjusted according to total RNA content as measured by RIBOGREEN®. Two different human PTP1B primer probe sets were used to measure mRNA levels. Results with Primer Probe Set (PPS) 198 are shown in Table 86, and results with Primer Probe Set (PPS) 3000 are shown in Table 87. Results are presented as percent inhibition of PTP1B mRNA expression relative to untreated control cells.

Series [4] relates to PTP1B mRNA. Briefly: Dose response for human PTP1B in HuVEC cells, Primer Probe Set 198 (Example 25, Table 86). The format is cell-based. On the procedure:
as §1

Series [5] relates to PTP1B mRNA. Briefly: Antisense inhibition of human PTP1B in HuVEC cells at 3 nM (Example 23, Table 84). The format is cell-based. On the procedure: Short antisense compounds targeted to a PTP1B nucleic acid were tested for their effects on PTP1B mRNA in vitro. Cultured HuVEC cells at a density of 5000 cells per well in a 96-well plate were treated as described herein with 3 nM of short antisense compound. After the treatment period, RNA was isolated from the cells and PTP1B mRNA levels were measured by quantitative real-time PCR, as described herein. PTP1B mRNA levels were adjusted according to total RNA content as measured by RIBOGREEN®. Results are presented as percent inhibition of PTP1B (% Inhib), relative to untreated control cells.

The subject of series [6] is PTP1B mRNA. Put plainly: Antisense inhibition of human PTP1B in HepG2 cells at 25 nM (Example 24, Table 85). The format is cell-based. How it is done:
Short antisense compounds targeted to a PTP1B nucleic acid were tested for their effects on PTP1B mRNA in vitro. Cultured HepG2 cells at a density of 10000 cells per well in a 96-well plate were treated with 25 nM of antisense oligonucleotide. After the treatment period, RNA was isolated from the cells and PTP1B mRNA levels were measured by quantitative real-time PCR, as described herein. PTP1B mRNA levels were adjusted according to total RNA content as measured by RIBOGREEN®. Results are presented as percent inhibition (% Ihib) of PTP1B, relative to untreated control cells.

Series [7] is described as follows: Plasma glucose in ZDF rats, once a week for twelve weeks (Example 16, Table 71). It is filed as in vivo, rat. To be noted: compared to PBS and control treated animals. On the procedure: (§2) ISIS 388625, 388626 and control oligo ISIS 388628 were analyzed for their effect on ZDF rat plasma glucose levels and HbA1c. The leptin receptor deficient Zucker diabetic fatty (ZDF) rat is a useful model for the investigation of type 2 diabetes. Diabetes develops spontaneously in these male rats at ages 8-10 weeks, and is associated with hyperphagia, polyuria, polydipsia, and impaired weight gain, symptoms which parallel the clinical symptoms of diabetes (Phillips M S, et al., 1996, Nat Genet. 13, 18-19). Six week old ZDF rats were injected intraperitoneally with short antisense compound at a dose of 400 nM/kg once a week for twelve weeks. Data are illustrated in Tables 71 and 72.

A further series deals with dog SGLT2 mRNA. Put plainly: Dog SGLT2 mRNA levels in kidney, beagle dogs, subcutaneous (Example 17, Table 73). The format is in vivo. The settings on record: for % change in SGLT2 expression relative to saline: subcutaneous twice weekly, day 46. On the procedure: ISIS 388625 is a 2-8-2 MOE Gapmer with sequence […] (SEQ ID NO: 246) (e.g. see Table 71). The effect of ISIS 388625 on dog SGLT2 mRNA levels. Data are taken from two dosing groups in which a total of nine male beagle dogs were dosed with either one or ten mg/kg/week of ISIS or saline given by subcutaneous injection twice weekly. On day 46 of the study all dogs were sacrificed and evaluated for SGLT2 levels in kidney. Target levels were determined by quantitative RT, real-time PCR as described by other examples herein. PCR results were normalized to an internal ISIS control.

A further series deals with rat SGLT2 mRNA. Put plainly: Rat SGLT2 mRNA levels in kidney, ISIS 379692 and ISIS 388625, Sprague-Dawley rats (Example 15, Table 70). The format is in vivo. To be noted: i.p. twice per week for three weeks. On the procedure:
The effect of ISIS 379692 1-10-1 MOE gapmer and ISIS 388625 MOE 2-8-2 gapmer (see Table 70) on rat SGLT2 mRNA levels in vivo. […] Rats were sacrificed 48 hours following last administration and evaluated for SGLT2 levels in kidney. Target levels were determined by RT, real-time PCR as described by other examples herein. PCR results were normalized to an internal ISIS control.

Series [8] relates to mouse SGLT2 mRNA. Briefly: Mouse SGLT2 mRNA levels in kidney, MOE versus Methyleneoxy BNA gapmers, Balb/c mice (Example 15, Table 69). The format is in vivo. How it is done: The effect of ISIS 379692 1-10-1 MOE gapmer and ISIS 388625 2-8-2 MOE gapmer are compared with the effect of ISIS 392170 1-10-1 Methyleneoxy BNA Gapmer and ISIS 392173 2-8-2 Methyleneoxy BNA Gapmer (see Table 69) on mouse SGLT2 mRNA levels in vivo. Data are taken from three experiments in which male 6-week old Balb/c mice were dosed twice per week for three weeks with 5, 25 and 125 nmol/kg of either the ISIS 379692 1-10-1 MOE gapmer or the ISIS 388625 2-8-2 MOE gapmer given by intraperitoneal injection. Mice were sacrificed 48 hours following last administration and evaluated for SGLT2 mRNA levels in kidney. Target levels were determined by RT, real-time PCR as described by other examples herein. PCR results were normalized to an internal ISIS control. The data are expressed as percent change (“+” indicates an increase, “−” indicates a decrease) relative to saline treated animals and are illustrated in Table 69.

For series [9], the system named is mouse SGLT2 mRNA. Put plainly: Mouse SGLT2 mRNA levels in kidney, additional 1-10-1 and 2-8-2 MOE gapmers, Balb/c mice (Example 15, Table 68). It is filed as in vivo.
A short description of series [10]: HbA1c status in ZDF rats (Example 16, Table 72). It is filed as in vivo, rat. The settings on record: compared to PBS and control treated animals. How it is done:
as §2

A short description of series [11]: Standard glucose tolerance test and urinary glucose excretion in dog (Example 17). The format is in vivo. An excerpt:
Even greater reduction can be achieved at slightly higher doses. […] Peak plasma glucose levels were decreased by over 50% on average and the subsequent drop in glucose was lessened compared to saline controls in a standard glucose tolerance test.

[12] abbreviates: 0.1 umol/kg i.p. twice per week for three weeks.

In the case of “398296 (antisense kG*kG*dT*dA*dC*dA*dT*dG*dG*dA*dA*dG*kT*kC) [compound 398296]”, the “% Inhib (ApoB mRNA in liver)” value in the series on ApoB mRNA [1] (setting [12]) came out at 17%; in the series with ApoB mRNA [1] (0.32 umol/kg i.p. twice per week for three weeks), 35%; in the series with ApoB mRNA [1] (1 umol/kg i.p. twice per week for three weeks), 80%; in the series on ApoB mRNA [1] (3.2 umol/kg i.p. twice per week for three weeks) it was 98%; with ApoB mRNA [2] (single i.p. dose 1 umol/kg) it was 19%; in the series on ApoB mRNA [2] (single i.p. dose 2 umol/kg) it was 54%. Further, the figures for the “% Inhib (ApoB mRNA in liver)” value in the series with ApoB mRNA [2] (single i.p. dose 4 umol/kg) and in the series on ApoB mRNA [2] (single i.p. dose 8 umol/kg) were 81% and 97%, respectively.

As to “399301 (antisense eG*eT*dG*dT*dG*d[5mC]*dA*d[5mC]*dA*d[5mC]*dA*dG*e[5mC]*eT) [compound 399301]”, the “% Inhibition of PTP1B mRNA” value is reported as 16% in the series on PTP1B mRNA [3] (PPS 3000, 1.11 nM); 65% in the series with PTP1B mRNA [3] (PPS 3000, 3.33 nM); 93% in the series on PTP1B mRNA [3] (PPS 3000, 10.0 nM); 99% in the series with PTP1B mRNA [3] (PPS 3000, 30.0 nM); 8% in the series with PTP1B mRNA [4] (PPS 198, 1.11 nM); 63% with PTP1B mRNA [4] (PPS 198, 3.33 nM). Besides, the “% Inhibition of PTP1B mRNA” value in the series with PTP1B mRNA [4] (PPS 198, 10.0 nM) amounted to 91%; in the series on PTP1B mRNA [4] (PPS 198, 30.0 nM) it was 97%. The results for the “% Inhib (PTP1B mRNA)” value in the series with PTP1B mRNA [5] and in the series with PTP1B mRNA [6] were 55% and 43%, respectively.

As for “404137 (antisense e[5mC]*eA*dG*dT*dG*dT*dG*d[5mC]*dA*d[5mC]*dA*d[5mC]*eA*eG) [compound 404137]”, the “% Inhib (PTP1B mRNA)” value amounted to 76% in the series on PTP1B mRNA [5] and 71% in the series on PTP1B mRNA [6].

In the case of “404138 (antisense e[5mC]*eT*d[5mC]*dA*dG*dT*dG*dT*dG*d[5mC]*dA*d[5mC]*eA*e[5mC]) [compound 404138]”, the “% Inhib (PTP1B mRNA)” value in the series with PTP1B mRNA [5] came to 76%; in the series on PTP1B mRNA [6], 86%.

“404139 (antisense eG*eT*dG*d[5mC]*dA*d[5mC]*dA*d[5mC]*dA*dG*d[5mC]*dT*eG*eA) [compound 404139]”: the entries for the “% Inhib (PTP1B mRNA)” value with PTP1B mRNA [5] and in the series on PTP1B mRNA [6] were 80% and 45%, respectively.

Consider “404140 (antisense eG*e[5mC]*dA*d[5mC]*dA*d[5mC]*dA*dG*d[5mC]*dT*dG*dA*eG*eG) [compound 404140]”, for which the entries for the “% Inhib (PTP1B mRNA)” value with PTP1B mRNA [5] and in the series with PTP1B mRNA [6] were 73% and 93%, respectively.

For “ISIS 388625: SGLT2; TGTTCCAGCCCA 2-8-2 MOE Gapmer (antisense eT*eG*dT*dT*d[5mC]*d[5mC]*dA*dG*d[5mC]*d[5mC]*e[5mC]*eA)”, the Plasma glucose levels entry in series [7] is reported as “significantly reduced”. The “reduction of SGLT2 mRNA / inhibition of the expression of SGLT2” value in the series with dog SGLT2 mRNA (1 mg/kg/wk dose) is recorded as “greater than 80%”. The “% change in SGLT2 expression relative to saline” value was −85% in the series with dog SGLT2 mRNA (1 mg/kg/wk); −95% with dog SGLT2 mRNA (10 mg/kg/wk); “+25%” in the series with rat SGLT2 mRNA (dose 3.125 umol/kg (head)); −15% with rat SGLT2 mRNA (dose 12.5 umol/kg (head)); −65% in the series with rat SGLT2 mRNA (dose 50 umol/kg (head)); −80% with rat SGLT2 mRNA (dose 200 umol/kg (head)). The “% change in SGLT2 expression relative to saline” value in the series with mouse SGLT2 mRNA [9] (0.02 umol/kg i.p. twice per week for three weeks) is on record as −65%; in the series on mouse SGLT2 mRNA [9] (setting [12]) it was −88%; with mouse SGLT2 mRNA [9] (0.5 umol/kg i.p. twice per week for three weeks), −90%. For the same substance, the “SGLT2 mRNA, percent change relative to saline treated animals” value in the series with mouse SGLT2 mRNA [8] (5 nmol/kg i.p. twice per week for three weeks) is reported as −18 percent change; in the series on mouse SGLT2 mRNA [8] (25 nmol/kg i.p. twice per week for three weeks) it was −47 percent change; in the series on mouse SGLT2 mRNA [8] (125 nmol/kg i.p. twice per week for three weeks), −70 percent change. The HbA1C entry in series [10] is “significantly reduced”. Further, the Urinary glucose excretion entry in series [11] was “increased”. The glucose tolerance result in [11] is on record as “improved glucose tolerance”. Besides, the “Peak plasma glucose levels decreased, on average” value in series [11] (standard glucose tolerance test, compared to saline controls) is “over 50%”.
